Test results reported in the NIST ThermoML archive (doi:10.1016/j.jct.2019.02.031).
Numbers after ± are expanded uncertainties.

Assay: xn = mol fraction of the nth substance listed
Conditions: 101 kPa, Liquid; for mass density: Vibrating tube method; for viscosity: Falling or rolling sphere viscometry

Cn1cc[n+](CCC[N+](C)(C)C)c1.N#C[N-]C#N.N#C[N-]C#N + CC(C)O
Conditions | mass density [kg/m3] | viscosity [mPa·s]
308.15 K, x1 = 0.1001 | 887.61 ± 2.2 | –
308.15 K, x1 = 0.2 | 962.09 ± 2.1 | –
308.15 K, x1 = 0.2999 | 1013.25 ± 2 | –
308.15 K, x1 = 0.4 | 1050.12 ± 2 | –
308.15 K, x1 = 0.5001 | 1078.35 ± 2 | –
308.15 K, x1 = 0.5998 | 1099.87 ± 2 | –
308.15 K, x1 = 0.7002 | 1116.01 ± 2 | –
308.15 K, x1 = 0.8001 | 1128.64 ± 2 | –
308.15 K, x1 = 0.8985 | 1139.04 ± 2 | –
308.15 K, x1 = 1 | 1147.8 ± 2 | –
313.15 K, x1 = 0.1001 | 884.01 ± 2.2 | 5.069 ± 0.51
313.15 K, x1 = 0.2 | 959.16 ± 2.1 | 11.51 ± 1.2
313.15 K, x1 = 0.2999 | 1009.82 ± 2 | 20.53 ± 2.1
313.15 K, x1 = 0.4 | 1046.89 ± 2 | 36.31 ± 3.6
313.15 K, x1 = 0.5001 | 1075.26 ± 2 | 58.15 ± 5.8
313.15 K, x1 = 0.5998 | 1096.85 ± 2 | 77.62 ± 7.8
313.15 K, x1 = 0.7002 | 1113.12 ± 2 | 107.2 ± 11
313.15 K, x1 = 0.8001 | 1125.89 ± 2 | 138.5 ± 14
313.15 K, x1 = 0.8985 | 1136.19 ± 2 | 207.8 ± 23
313.15 K, x1 = 1 | 1144.89 ± 2 | 324.6 ± 37
318.15 K, x1 = 0.1001 | 880.4 ± 2.2 | 4.515 ± 0.46
318.15 K, x1 = 0.2 | 955.64 ± 2.1 | 10.08 ± 1
318.15 K, x1 = 0.2999 | 1006.35 ± 2 | 17.42 ± 1.8
318.15 K, x1 = 0.4 | 1043.68 ± 2 | 30.62 ± 3.1
318.15 K, x1 = 0.5001 | 1072.32 ± 2 | 48.57 ± 4.9
318.15 K, x1 = 0.5998 | 1094.09 ± 2 | 63.07 ± 6.3
318.15 K, x1 = 0.7002 | 1110.26 ± 2 | 85.59 ± 8.7
318.15 K, x1 = 0.8001 | 1123.09 ± 2 | 109 ± 11
318.15 K, x1 = 0.8985 | 1133.33 ± 2 | 160.3 ± 17
318.15 K, x1 = 1 | 1142 ± 2 | 239.7 ± 27
323.15 K, x1 = 0.1001 | 876.76 ± 2.2 | 4.052 ± 0.41
323.15 K, x1 = 0.2 | 952.12 ± 2.1 | 8.828 ± 0.89
323.15 K, x1 = 0.2999 | 1002.86 ± 2 | 15.18 ± 1.5
323.15 K, x1 = 0.4 | 1040.46 ± 2 | 26.11 ± 2.6
323.15 K, x1 = 0.5001 | 1069.5 ± 2 | 40.73 ± 4.1
323.15 K, x1 = 0.5998 | 1091.18 ± 2 | 52.16 ± 5.2
323.15 K, x1 = 0.7002 | 1107.31 ± 2 | 70.03 ± 7
323.15 K, x1 = 0.8001 | 1120.31 ± 2 | 86.93 ± 8.8
323.15 K, x1 = 0.8985 | 1130.45 ± 2 | 125.4 ± 13
323.15 K, x1 = 1 | 1139.11 ± 2 | 181.2 ± 20
328.15 K, x1 = 0.1001 | 873.09 ± 2.2 | 3.672 ± 0.37
328.15 K, x1 = 0.2 | 948.69 ± 2.1 | 7.836 ± 0.79
328.15 K, x1 = 0.2999 | 1000.05 ± 2 | 13.38 ± 1.3
328.15 K, x1 = 0.4 | 1037.56 ± 2 | 22.57 ± 2.3
328.15 K, x1 = 0.5001 | 1066.62 ± 2 | 34.87 ± 3.5
328.15 K, x1 = 0.5998 | 1088.47 ± 2 | 45.82 ± 4.6
328.15 K, x1 = 0.7002 | 1104.35 ± 2 | 58.38 ± 5.9
328.15 K, x1 = 0.8001 | 1117.52 ± 2 | 71.22 ± 7.2
328.15 K, x1 = 0.8985 | 1127.59 ± 2 | 101.4 ± 10
328.15 K, x1 = 1 | 1136.24 ± 2 | 141.1 ± 15
333.15 K, x1 = 0.1001 | 869.4 ± 2.2 | 3.36 ± 0.34
333.15 K, x1 = 0.2 | 945.77 ± 2.1 | 6.989 ± 0.7
333.15 K, x1 = 0.2999 | 996.95 ± 2 | 11.94 ± 1.2
333.15 K, x1 = 0.4 | 1034.62 ± 2 | 19.89 ± 2
333.15 K, x1 = 0.5001 | 1063.89 ± 2 | 29.99 ± 3
333.15 K, x1 = 0.5998 | 1085.59 ± 2 | 39.36 ± 4
333.15 K, x1 = 0.7002 | 1101.65 ± 2 | 49.32 ± 5
333.15 K, x1 = 0.8001 | 1114.82 ± 2 | 59.34 ± 6
333.15 K, x1 = 0.8985 | 1124.75 ± 2 | 83.14 ± 8.4
333.15 K, x1 = 1 | 1133.4 ± 2 | 111.9 ± 12
